Assay results taken from patent EP0197664A2, “2-Aminopyrimidinone derivatives” (SMITH KLINE & FRENCH LABORATORIES LIMITED, priority 1985, dated 1986).

Columns and labels:
[1] = system: anaesthetised cats; test: Cardiac stimulant activity in vivo (anaesthetised cats, left ventricular dp/dt max); conditions: Felis catus, read-out: ED50 (dose to increase left ventricular dp/dt max by 50%); anaesthetised cats pretreated with pempidine and propranolol, intravenous
Excerpt: The dose to increase left ventricular dp/dt max by 50% is given as the EDso.

[2] = system: right ventricle strips; test: Cardiac stimulant activity in vitro (force of contraction of electrically stimulated ventricular strips); assay type: cell-based, Guinea pigs; conditions: Cavia porcellus, read-out: EC50 (50% increase in the force of contraction of the ventricular strips); guinea pig right ventricular strips, 1.0 Hz stimulation, Krebs Henseleit solution at 37°C, cumulative concentration response
Method: The compounds of formula (I) and their pharmaceutically acceptable salts are tested for cardiac stimulant activity following a procedure based on that of S.C. […] Guinea pigs (500-700 g) of either sex are sacrificed and the hearts are quickly removed and transferred to a dissecting dish containing oxygenated bathing fluid. While in the bathing medium, the right ventricle is cut into two strips. The strips are each suspended in a 50 ml bath containing Krebs Henseleit solution at 37°C, and the bath is bubbled with 95% oxygen and 5% carbon dioxide. The ventricular strips are electrically stimulated at a frequency of 1.0 Hz, at double the threshold voltage. A resting tension of 1.0 g is applied to the strips and the tension is kept constant by readjustment during an equilibration period of 60 minutes. The bathing fluid is frequently changed during this period. When a steady base line is obtained, a compound under test is added to the bathing fluid and a cumulative concentration response curve is plotted.

| EC50 [2] | Compound | ED50 [1] |
| --- | --- | --- |
| 15 µM | Nc1cc(-c2ccncc2)c[nH]c1=O [Amrinone, reference compound] | 5.6 µmol/kg |
|  | CC1CC(=O)NN=C1c1ccc(Nc2nc(=O)cc[nH]2)cc1 (centres unmarked) [Example 1, 6-[4-(1,4-Dihydro-4-oxo-2-pyrimidinylamino)phenyl]-5-methyl-4,5-dihydro-3(2H)-pyridazinone] | 0.06 µmol/kg |
|  | Cc1c[nH]c(Nc2ccc(C3=NNC(=O)CC3C)cc2)nc1=O (centres unmarked) [Example 3, 6-[4-(1,4-Dihydro-5-methyl-4-oxo-2-pyrimidinylamino)phenyl]-5-methyl-4,5-dihydro-3-(2H)-pyridazinone] | 3.03 µmol/kg |
|  | CC1CC(=O)NN=C1c1ccc(Nc2nc(=O)c3ccccc3[nH]2)cc1 (centres unmarked) [Example 4, 6-[4-(1,4-Dihydro-4-oxo-2-quinazolinyiamino)-phenyl]-5-methyl-4,5-dihydro-3(2H)-pyridazinone] | 0.41 µmol/kg |
